From PMC5499824 (Nucleic Acids Research, 2017)
Where a chain is given by its changes, count along the chain named.

Tests used:
[1] = target: T1, hNSun6 (Homo sapiens, UniProt Q8TEA1, K248A); assay: isothermal titration calorimetry; assay type: binding
T1 sequence (Q8TEA1 1-469 K248A): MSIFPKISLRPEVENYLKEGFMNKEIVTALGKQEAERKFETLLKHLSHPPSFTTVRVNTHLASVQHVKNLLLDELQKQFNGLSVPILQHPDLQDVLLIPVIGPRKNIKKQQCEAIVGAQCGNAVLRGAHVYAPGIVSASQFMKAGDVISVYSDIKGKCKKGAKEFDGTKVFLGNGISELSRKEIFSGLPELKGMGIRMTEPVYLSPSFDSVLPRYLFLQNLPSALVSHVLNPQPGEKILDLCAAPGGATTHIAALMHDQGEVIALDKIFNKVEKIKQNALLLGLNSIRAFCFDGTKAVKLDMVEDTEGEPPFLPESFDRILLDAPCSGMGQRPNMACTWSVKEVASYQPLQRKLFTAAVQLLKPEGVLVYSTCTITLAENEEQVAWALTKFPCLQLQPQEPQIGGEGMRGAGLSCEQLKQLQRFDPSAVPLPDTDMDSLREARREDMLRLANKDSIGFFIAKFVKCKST

[2] = target: T2, hNSun6 (Homo sapiens, UniProt Q8TEA1); assay: isothermal titration calorimetry; assay type: binding
T2 sequence (Q8TEA1 1-469): T1 sequence (Q8TEA1 1-469 K248A) with A248K

Kd [1]: 10.3 µM | Kd [2]: 1.7 µM
Compound: C[S+](CC[C@H](N)C(=O)O)C[C@H]1O[C@@H](n2cnc3c(N)ncnc32)[C@H](O)[C@@H]1O (some centres unmarked) [SAM]
